# Experimental data as given in the supplement of paper PMC4862054.
# Experiments:
# Conditions in all cases: incubation time: 72 h
# [1] = system: HCC1599; assay: normalised response (% of control), CellTiter-Glo; higher = more viable cells (100 = DMSO, 0 = benzethonium chloride kill control)
# Method in brief: (§1)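 Each value is the plate-normalised signal at one concentration of the series. Breast cancer cell lines (20 µl suspension) were incubated 72 h in 384-well plates with compound at 5 concentrations in 10-fold steps over a compound-specific 10,000-fold range. CellTox Green and then CellTiter-Glo were read, and each plate was scaled to 0.1 % DMSO (100) and a positive kill control (0).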
# [2] = system: MDA-MB-436; assay: as above
# Method in brief: as §1
# [3] = system: HCC1143; assay: as above
# Method in brief: as §1
# [4] = system: MDA-MB-468; assay: as above
# Method in brief: as §1
# [5] = system: HCC1599; assay: drug sensitivity score (DSS), CellTiter-Blue viability (DSS (AUC-based score)); higher = stronger viability inhibition; extreme values may be limits of the assay
# Procedure: (§2)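 DSRT with the CellTiter-Blue (resazurin reduction) viability readout, fluorescence 560/590 nm, 72 h incubation. Plates were normalised to DMSO and benzethonium chloride controls. DSS is computed from the area under the fitted dose-response curve (5 or 9 concentrations).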
# [6] = system: SK-BR-3; assay: as above
# Procedure: as §2
# [7] = system: CAL-120; assay: as above
# Procedure: as §2
# [8] = system: MDA-MB-436; assay: as above
# Procedure: as §2
# [9] = system: MDA-MB-453; assay: as above
# Procedure: as §2
# [10] = system: CAL-85-1; assay: as above
# Procedure: as §2
# [11] = system: HCC1937; assay: as above
# Procedure: as §2
# [12] = system: MFM-223; assay: as above
# Procedure: as §2
# [13] = system: BT-549; assay: as above
# Procedure: as §2
# [14] = system: HCC1143; assay: as above
# Procedure: as §2
# [15] = system: MDA-MB-468; assay: as above
# Procedure: as §2
# [16] = system: BT-474; assay: as above
# Procedure: as §2
# [17] = system: CAL-51; assay: as above
# Procedure: as §2
# [18] = system: Hs578T; assay: as above
# Procedure: as §2
# [19] = system: MDA-MB-231; assay: as above
# Procedure: as §2
# [20] = system: DU-4475; assay: as above
# Procedure: as §2
# [21] = system: HDQ-P1; assay: as above
# Procedure: as §2
# [22] = system: CAL-148; assay: as above
# Procedure: as §2
structure (smiles),measurement,setting,value
Cc1ccc(F)c(NC(=O)Nc2ccc(-c3cccc4[nH]nc(N)c34)cc2)c1 [Linifanib] (1000 nM),normalised response,[1],105%
same,normalised response,[2],111%
same,normalised response,[3],108%
same,normalised response,[4],108%
CN(C)C/C=C/C(=O)Nc1cc2c(Nc3ccc(F)c(Cl)c3)ncnc2cc1O[C@H]1CCOC1 [Afatinib] (1000 nM),normalised response,[1],108%
same,normalised response,[2],98%
same,normalised response,[3],97.2%
same,normalised response,[4],66.8%
C=CC[C@@H]1/C=C(\C)C[C@H](C)C[C@H](OC)[C@H]2O[C@@](O)(C(=O)C(=O)N3CCCC[C@H]3C(=O)O[C@H](/C(C)=C/[C@@H]3CC[C@@H](O)[C@H](OC)C3)[C@H](C)[C@@H](O)CC1=O)[C@H](C)C[C@@H]2OC [Tacrolimus] (10000 nM),normalised response,[1],119%
same,normalised response,[2],98%
same,normalised response,[3],86.8%
same,normalised response,[4],85.4%
CC[C@]1(O)C[C@@H]2CN(CCc3c([nH]c4ccccc34)[C@@](C(=O)OC)(c3cc4c(cc3OC)N(C)[C@H]3[C@@](O)(C(=O)OC)[C@H](OC(C)=O)[C@]5(CC)C=CCN6CC[C@]43[C@@H]65)C2)C1 [Vinblastine] (1000 nM),normalised response,[1],12.6%
same,normalised response,[2],22.6%
same,normalised response,[3],50.2%
same,normalised response,[4],33.9%
CN1CC[C@H](c2c(O)cc(O)c3c(=O)cc(-c4ccccc4Cl)oc23)[C@H](O)C1 [Alvocidib] (10000 nM),normalised response,[1],13.9%
same,normalised response,[2],20.1%
same,normalised response,[3],17%
same,normalised response,[4],5.01%
Nc1nc(Cl)nc2c1ncn2[C@H]1C[C@H](O)[C@@H](CO)O1 [Cladribine] (1000 nM),normalised response,[1],61.2%
same,normalised response,[2],77.3%
same,normalised response,[3],92%
same,normalised response,[4],87.9%
OC[C@H]1O[C@@H](n2cnc3c2N=CNC[C@H]3O)C[C@@H]1O [Pentostatin] (10000 nM),normalised response,[1],108%
same,normalised response,[2],96.8%
same,normalised response,[3],99.1%
same,normalised response,[4],103%
N#CC[C@H](C1CCCC1)n1cc(-c2ncnc3[nH]ccc23)cn1 [Ruxolitinib] (10000 nM),normalised response,[1],94.4%
same,normalised response,[2],88.4%
same,normalised response,[3],93.3%
same,normalised response,[4],88.7%
CS(=O)(=O)c1ccc(C(=O)Nc2ccc(Cl)c(-c3ccccn3)c2)c(Cl)c1 [Vismodegib] (10000 nM),normalised response,[1],88.8%
same,normalised response,[2],96.8%
same,normalised response,[3],89.9%
same,normalised response,[4],97.2%
CO[C@H]1C[C@@H]2CC[C@@H](C)[C@@](O)(O2)C(=O)C(=O)N2CCCC[C@H]2C(=O)O[C@H]([C@H](C)C[C@@H]2CC[C@@H](OC(=O)C(C)(CO)CO)[C@H](OC)C2)CC(=O)[C@H](C)/C=C(\C)[C@@H](O)[C@@H](OC)C(=O)[C@H](C)C[C@H](C)/C=C/C=C/C=C/1C [Temsirolimus] (100 nM),normalised response,[1],90.8%
same,normalised response,[2],83%
same,normalised response,[3],65.2%
same,normalised response,[4],56.9%
C[C@]1(c2nc3c(C(N)=O)cccc3[nH]2)CCCN1 [Veliparib],drug sensitivity score,[5],0
same,drug sensitivity score,[6],0
same,drug sensitivity score,[7],0
same,drug sensitivity score,[8],0
same,drug sensitivity score,[9],0
same,drug sensitivity score,[10],0
same,drug sensitivity score,[11],0
same,drug sensitivity score,[12],0
same,drug sensitivity score,[13],0
same,drug sensitivity score,[14],0
same,drug sensitivity score,[15],0
same,drug sensitivity score,[16],0
same,drug sensitivity score,[17],0
same,drug sensitivity score,[18],0
same,drug sensitivity score,[19],0
same,drug sensitivity score,[20],0
same,drug sensitivity score,[21],0
same,drug sensitivity score,[22],0
C=CC[C@@H]1/C=C(\C)C[C@H](C)C[C@H](OC)[C@H]2O[C@@](O)(C(=O)C(=O)N3CCCC[C@H]3C(=O)O[C@H](/C(C)=C/[C@@H]3CC[C@@H](O)[C@H](OC)C3)[C@H](C)[C@@H](O)CC1=O)[C@H](C)C[C@@H]2OC [Tacrolimus],drug sensitivity score,[5],0
same,drug sensitivity score,[6],0
same,drug sensitivity score,[7],0
same,drug sensitivity score,[8],0
same,drug sensitivity score,[9],0
same,drug sensitivity score,[10],0
same,drug sensitivity score,[11],0
same,drug sensitivity score,[12],0
same,drug sensitivity score,[13],0
same,drug sensitivity score,[14],0
same,drug sensitivity score,[15],0
same,drug sensitivity score,[16],0
same,drug sensitivity score,[17],0
same,drug sensitivity score,[18],0
same,drug sensitivity score,[19],0
same,drug sensitivity score,[20],0
same,drug sensitivity score,[21],0
same,drug sensitivity score,[22],0
OC[C@H]1O[C@@H](n2cnc3c2N=CNC[C@H]3O)C[C@@H]1O [Pentostatin],drug sensitivity score,[5],0
same,drug sensitivity score,[6],0
same,drug sensitivity score,[7],0
same,drug sensitivity score,[8],0
same,drug sensitivity score,[9],0
same,drug sensitivity score,[10],0
same,drug sensitivity score,[11],0
same,drug sensitivity score,[12],0
same,drug sensitivity score,[13],0
same,drug sensitivity score,[14],0
same,drug sensitivity score,[15],0
same,drug sensitivity score,[16],0
same,drug sensitivity score,[17],0
same,drug sensitivity score,[18],0
same,drug sensitivity score,[19],0
same,drug sensitivity score,[20],0
same,drug sensitivity score,[21],0
same,drug sensitivity score,[22],0
Cc1c2oc3c(C)ccc(C(=O)N[C@@H]4C(=O)N[C@H](C(C)C)C(=O)N5CCC[C@H]5C(=O)N(C)CC(=O)N(C)[C@@H](C(C)C)C(=O)O[C@@H]4C)c3nc-2c(C(=O)N[C@@H]2C(=O)N[C@H](C(C)C)C(=O)N3CCC[C@H]3C(=O)N(C)CC(=O)N(C)[C@@H](C(C)C)C(=O)O[C@@H]2C)c(N)c1=O [Dactinomycin] (1000 nM),normalised response,[1],7.78%
same,normalised response,[2],17.1%
same,normalised response,[3],11.3%
same,normalised response,[4],4.19%
Nc1ccn([C@@H]2O[C@H](CO)[C@@H](O)[C@@H]2O)c(=O)n1 [Cytarabine] (10000 nM),normalised response,[1],69.8%
same,normalised response,[2],38.7%
same,normalised response,[3],55.9%
same,normalised response,[4],62.9%
